From PubChem BioAssay AID1963963 (Molecular Pharmacology Branch, DTP, NCI, 2024)

System: 958667-338-R-J2-PDC tumor spheroids viability
Assay: Anticancer human tumor 958667-338-R-J2-PDC patient-derived colon adenocarcinoma cell line growth inhibition [PI3K]
Conditions: spheroids with HUVEC and MSC; for IC50: curve of first compound; for viability, T/C: stronger effect = lower value
How it was run: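 Spheroid viability read-out. Co-cultures contained the tumor line plus HUVEC and human MSCs. Each agent was paired with a PI3K inhibitor (inavolisib, alpelisib, duvelisib, copanlisib) across half-log dilutions starting at clinical Cmax, or at 10 microM when Cmax was unknown.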
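Note: spheroids exposed to compounds for seven days before readout.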

With Cn1ncnc1[C@H]1c2n[nH]c(=O)c3cc(F)cc(c23)N[C@@H]1c1ccc(F)cc1 + COc1c(OCCCN2CCOCC2)ccc2c3n(c(=NC(=O)c4cnc(N)nc4)nc12)CCN3 the IC50 (second compound 0.00316 µM) was > 100 nM, the IC50 (second compound 0.01 µM) was > 100 nM and the IC50 (second compound 0.0316 µM) was > 100 nM. For the same compound, the IC50 (second compound 0.1 µM) was > 100 nM, the IC50 (second compound 0.316 µM) was < 0.316 nM and the IC50 (second compound 1 µM) was < 0.316 nM. It also gave a viability, T/C (second compound 0.00316 µM, first compound 0.000316 µM) of 96.3%, a viability, T/C (second compound 0.00316 µM, first compound 0.001 µM) of 104% and a viability, T/C (second compound 0.00316 µM, first compound 0.00316 µM) of 93.6%. The viability, T/C (second compound 0.00316 µM, first compound 0.01 µM) was 102%, the viability, T/C (second compound 0.00316 µM, first compound 0.0316 µM) was 87.8% and the viability, T/C (second compound 0.00316 µM, first compound 0.1 µM) was 75.8%. For the same compound, the viability, T/C (second compound 0.01 µM, first compound 0.000316 µM) was 76.3%, the viability, T/C (second compound 0.01 µM, first compound 0.001 µM) was 72.5% and the viability, T/C (second compound 0.01 µM, first compound 0.00316 µM) was 94.2%. The viability, T/C (second compound 0.01 µM, first compound 0.01 µM) was 90.7%, the viability, T/C (second compound 0.01 µM, first compound 0.0316 µM) was 80.5% and the viability, T/C (second compound 0.01 µM, first compound 0.1 µM) was 87.3%. It also gave a viability, T/C (second compound 0.0316 µM, first compound 0.000316 µM) of 69.4%, a viability, T/C (second compound 0.0316 µM, first compound 0.001 µM) of 74.4% and a viability, T/C (second compound 0.0316 µM, first compound 0.00316 µM) of 98.4%. For the same compound, the viability, T/C (second compound 0.0316 µM, first compound 0.01 µM) was 79.2%, the viability, T/C (second compound 0.0316 µM, first compound 0.0316 µM) was 79.8% and the viability, T/C (second compound 0.0316 µM, first compound 0.1 µM) was 61.9%. The viability, T/C (second compound 0.1 µM, first compound 0.000316 µM) was 62%, the viability, T/C (second compound 0.1 µM, first compound 0.001 µM) was 61.7% and the viability, T/C (second compound 0.1 µM, first compound 0.00316 µM) was 59.6%. For the same compound, the viability, T/C (second compound 0.1 µM, first compound 0.01 µM) was 66.8%, the viability, T/C (second compound 0.1 µM, first compound 0.0316 µM) was 57.3% and the viability, T/C (second compound 0.1 µM, first compound 0.1 µM) was 56%. For the same compound, the viability, T/C (second compound 0.316 µM, first compound 0.000316 µM) was 37%, the viability, T/C (second compound 0.316 µM, first compound 0.001 µM) was 38% and the viability, T/C (second compound 0.316 µM, first compound 0.00316 µM) was 43.8%. For the same compound, the viability, T/C (second compound 0.316 µM, first compound 0.01 µM) was 46.1%, the viability, T/C (second compound 0.316 µM, first compound 0.0316 µM) was 34.9% and the viability, T/C (second compound 0.316 µM, first compound 0.1 µM) was 34.9%. For the same compound, the viability, T/C (second compound 1 µM, first compound 0.000316 µM) was 19.7%, the viability, T/C (second compound 1 µM, first compound 0.001 µM) was 15.6% and the viability, T/C (second compound 1 µM, first compound 0.00316 µM) was 21.7%. For the same compound, the viability, T/C (second compound 1 µM, first compound 0.01 µM) was 21.1%, the viability, T/C (second compound 1 µM, first compound 0.0316 µM) was 22.5% and the viability, T/C (second compound 1 µM, first compound 0.1 µM) was 14.9%.
